From patent US8039617B2, “Method for producing alpha form crystals of sapropterin hydrochloride” (Shiratori Pharmaceutical Co., Ltd., priority 2005, dated 2011)
Counter-ions that a name gives are not always drawn.

Tests used:
[1] = moisture absorption during storage; type: physicochemical; settings: for color change due to moisture absorption: hydrochloride
Experimental: With regard to moisture absorption, α form crystal undergoes increase in weight by moisture absorption of 0.85 to 2% during storage for 14 days under the conditions of 25° C. and at relative humidity of 20 to 75%. […] On the other hand, weight of the β form crystal gradually increases under the conditions of 25° C. and a relative humidity of 60%, and weight increase is 3.5% at 18 hours and the increase continues to the maximum of 3.9%. From this, α form crystal is more moisture-stable than β form. […] Accordingly, α form crystal is suitable for storage.

[2] = type: physicochemical
Experimental: Furthermore, in differential thermal analysis, α form crystal has only one endothermic peak near the 250° C. as shown in FIG. 5 while β form crystal has two endothermic peaks near 180° C. and near 230° C. as shown in FIG. 6.

SMILES | course of weight increase over storage ([1]; 25° C., relative humidity of 20 to 75%, day 1 to day 14) | color change due to moisture absorption [1] | endothermic peak in differential thermal analysis (thermal stability) [2] [°C] | weight increase by moisture absorption ([1]; 25° C., relative humidity of 60%, at 18 hours) [%] | maximum weight increase by moisture absorption ([1]; 25° C., relative humidity of 60%, maximum) [%]
C[C@H](O)[C@H](O)[C@H]1CNc2nc(N)[nH]c(=O)c2N1 [α form crystal, sapropterin hydrochloride] | stable from day 1 to day 14 | does not change its color | ~250 | – | –
C[C@H](O)[C@H](O)[C@H]1CNc2nc(N)[nH]c(=O)c2N1 [β form crystal, sapropterin hydrochloride] | – | changes the color from white to pale yellow | – | 3.5 | 3.9
